# Measurements taken from US7932246B2, “Histone deacetylase inhibitors” (Chroma Therapeutics Ltd., priority 2005, dated 2011).
# Where a name gives a salt, the structure may show the parent alone.
# Experiments:
# [1] = tested on: HUT; assay: HUT cell inhibition assay (WST-1 cell viability); assay type: cell-based; settings: HUT cells, 72-96 h, WST-1 assay, IC50 range
# Protocol: (§1) Cancer cell lines (U937 and HUT) growing in log phase were harvested and seeded at 1000-2000 cells/well (100 μl final volume) into 96-well tissue culture plates. Following 24 h of growth cells were treated with compound. Plates were then re-incubated for a further 72-96 h before a WST-1 cell viability assay was conducted according to the suppliers (Roche Applied Science) instructions.
# (§2) Data were expressed as a percentage inhibition of the control, measured in the absence of inhibitor, as follows:— % inhibition=100−[(S^i/S^o)×100] where S^i is the signal in the presence of inhibitor and S^o is the signal in the presence of DMSO.
# (§3) Dose response curves were generated from 8 concentrations (top final concentration 10 μM, with 3-fold dilutions), using 6 replicates.
# (§4) IC50 values were determined by non-linear regression analysis, after fitting the results to the equation for sigmoidal dose response with variable slope (% activity against log concentration of compound), using Graphpad Prism software.
# (§5) IC50 results were allocated to one of 3 ranges as follows: […]
# [2] = tested on: HeLa cells; assay: HeLa cell inhibition assay (SRB cell viability); assay type: cell-based; settings: 72 h, IC50 range
# Protocol: HeLa cells growing in log phase were harvested and seeded at 1000 cells/well (200 μl final volume) into 96-well tissue culture plates. Following 24 h of cell growth cells were treated with compounds (final concentration of 20 μM). Plates were then re-incubated for a further 72 h before a sulphorhodamine B (SRB) cell viability assay was conducted according to Skehan 1990 J Natl Canc Inst 82, 1107-1112.
# as §2
# IC50 values were determined by non-linear regression analysis, after fitting the results of eight data points to the equation for sigmoidal dose response with variable slope (% activity against log concentration of compound), using Graphpad Prism software.
# as §5
# [3] = target: histone deacetylase activity (HeLa nuclear extract); assay: HDAC fluorescent activity assay (Biomol, Fluor de Lys substrate); assay type: biochemical; settings: IC50 range
# Protocol: The ability of compounds to inhibit histone deacetylase activities was measured using the commercially available HDAC fluorescent activity assay from Biomol. In brief, the Fluor de Lys™ substrate, a lysine with an epsilon-amino acetylation, is incubated with the source of histone deacetylase activity (HeLa nuclear extract) in the presence or absence of inhibitor. Deacetylation of the substrate sensitises the substrate to Fluor de Lys™ developer, which generates a fluorophore.
# Data are expressed as a percentage of the control, measured in the absence of inhibitor, with background signal being subtracted from all samples, as follows:— % activity=[(S^i−B)/(S^o−B)]×100 where S^i is the signal in the presence of substrate, enzyme and inhibitor, S^o is the signal in the presence of substrate, enzyme and the vehicle in which the inhibitor is dissolved, and B is the background signal measured in the absence of enzyme.
# Histone deacetylase activity from crude nuclear extract derived from HeLa cells was used for screening. The preparation, purchased from 4C (Seneffe, Belgium), was prepared from HeLa cells harvested whilst in exponential growth phase. The nuclear extract is prepared according to Dignam JD1983 Nucl. Acid. […] The final buffer composition was 20 mM Hepes, 100 mM KCl, 0.2 mM EDTA, 0.5 mM DTT, 0.2 mM PMSF and 20% (v/v) glycerol.
# [4] = tested on: U937; assay: U937 cell inhibition assay (WST-1 cell viability); assay type: cell-based; settings: U937 cells, 72-96 h, WST-1 assay, IC50 range
# Protocol: as §1, §2, §3, §4, §5
Structure (SMILES),IC50 [1],"IC50 ([2]; Homo sapiens, HeLa)",IC50 [3],"IC50 ([4]; Homo sapiens, U-937)",IC50 [2],IC50 [4]
"O=C(NO)c1cnc(N2CC3C(C2)C3NC(=O)C2(c3ccccc3)CC2)nc1 (centres unmarked) [Example 9, N-Hydroxy 2-(6-{[(1-phenylcyclopropyl)carbonyl]amino}-3-azabicyclo[3.1.0]hex-3-yl)pyrimidine-5-carboxamide]",331 to 3300 nM,331 to 3300 nM,< 100 nM,331 to 3300 nM,,
"O=C(NO)c1cnc(N2CC3C(C2)C3NS(=O)(=O)c2ccc(OC(F)(F)F)cc2)nc1 (centres unmarked) [Example 4, N-Hydroxy 2-(6-{[(4-trifluoromethoxyphenyl)sulfonyl]amino}-3-azabicyclo[3.1.0]hex-3-yl)pyrimidine-5-carboxamide]",< 330 nM,331 to 3300 nM,< 100 nM,< 330 nM,,
"CCN(CC)CCC(=O)N(Cc1ccc2ccccc2c1)C1C2CN(c3ncc(C(=O)NO)cn3)CC21 (centres unmarked) [Example 59, N-Hydroxy 2-{6-[(3-diethylaminopropionyl)naphthalen-2-ylmethylamino]-3-azabicyclo[3.1.0]hex-3-yl}-pyrimidine-5-carboxamide]",< 330 nM,< 330 nM,< 100 nM,< 330 nM,,
"COc1ccc(CNC2C3CN(c4ncc(C(=O)NO)cn4)CC32)cc1 (centres unmarked) [Example 26, N-Hydroxy 2-{6-[(4-methoxybenzyl)amino]-3-azabicyclo[3.1.0]hex-3-yl}pyrimidine-5-carboxamide]",< 330 nM,,< 100 nM,,< 330 nM,< 330 nM
"O=C(NO)c1cnc(N2CC3C(C2)C3NC(=O)c2ccc3occc3c2)nc1 (centres unmarked) [Example 16, N-Hydroxy 2-{6-[(1-benzofuran-5-ylcarbonyl)amino]-3-azabicyclo[3.1.0]hex-3-yl}pyrimidine-5-carboxamide]",< 330 nM,331 to 3300 nM,< 100 nM,331 to 3300 nM,,
"O=C(NO)c1cnc(N2CC3C(C2)C3NCc2ccc(-c3ccccc3)cc2)nc1 (centres unmarked) [Example 27, N-Hydroxy 2-{6-[(biphenyl-4-ylmethyl)-amino]-3-aza-bicyclo[3.1.0]hex-3-yl}pyrimidine-5-carboxamide]",< 330 nM,< 330 nM,< 100 nM,< 330 nM,,
"O=C(NO)c1cnc(N2CC3CN(S(=O)(=O)c4ccc(OC(F)(F)F)cc4)CC3C2)nc1 (centres unmarked) [Example 82, N-Hydroxy 2-[5-{[4-(trifluoromethoxy)phenyl]sulfonyl}hexahydropyrrolo[3,4-c]pyrrol-2(1H)-yl]pyrimidine-5-carboxamide]",331 to 3300 nM,331 to 3300 nM,< 100 nM,331 to 3300 nM,,
"O=C(CCCOc1ccccc1)NC1C2CN(c3ncc(C(=O)NO)cn3)CC21 (centres unmarked) [Example 15, N-Hydroxy 2-[6-(4-phenoxybutyrylamino)-3-azabicyclo[3.1.0]hex-3-yl]pyrimidine-5-carboxamide]",331 to 3300 nM,331 to 3300 nM,< 100 nM,331 to 3300 nM,,
"CCCCc1ccc(CNC2C3CN(c4ncc(C(=O)NO)cn4)CC32)cc1 (centres unmarked) [Example 23, N-Hydroxy 2-[6-(4-butylbenzylamino)-3-azabicyclo[3.1.0]hex-3-yl]pyrimidine-5-carboxamide]",< 330 nM,331 to 3300 nM,< 100 nM,331 to 3300 nM,,
"N#Cc1ccc(CNC2C3CN(c4ncc(C(=O)NO)cn4)CC32)cc1 (centres unmarked) [Example 31, N-Hydroxy 2-{6-[(4-cyanobenzyl)amino]-3-azabicyclo[3.1.0]hex-3-yl}pyrimidine-5-carboxamide]",< 330 nM,331 to 3300 nM,< 100 nM,< 330 nM,,
"O=C(NO)c1cnc(N2CC3C(C2)C3NCc2ccccc2)nc1 (centres unmarked) [Example 33, N-Hydroxy 2-[6-(benzylamino)-3-azabicyclo[3.1.0]hex-3-yl]pyrimidine-5-carboxamide]",< 330 nM,< 330 nM,< 100 nM,< 330 nM,,
"O=C(NO)c1cnc(N2CC3C(C2)C3N(CCN2CCCC2=O)S(=O)(=O)c2ccc3ccccc3c2)nc1 (centres unmarked) [Example 48, N-Hydroxy 2-(6-{(naphthalene-2-sulfonyl)-[2-(2-oxopyrrolidin-1-yl)ethyl]amino}-3-aza-bicyclo[3.1.0]hex-3-yl)pyrimidine-5-carboxamide]",331 to 3300 nM,331 to 3300 nM,< 100 nM,331 to 3300 nM,,
"O=C(NO)c1cnc(N2CC3C(C2)C3NCc2ccc(Oc3ccccc3)cc2)nc1 (centres unmarked) [Example 22, N-Hydroxy 2-[6-(4-phenoxybenzylamino)-3-azabicyclo[3.1.0]hex-3-yl]pyrimidine-5-carboxamide]",< 330 nM,< 330 nM,< 100 nM,< 330 nM,,
"CCN(CC)CCN(Cc1ccc2ccccc2c1)C1C2CN(c3ncc(C(=O)NO)cn3)CC21 (centres unmarked) [Example 56, N-Hydroxy 2-{6-[(2-diethylaminoethyl)naphthalen-2-ylmethylamino]-3-azabicyclo[3.1.0]hex-3-yl}pyrimidine-5-carboxamide]",< 330 nM,< 330 nM,< 100 nM,331 to 3300 nM,,
"O=C(NO)c1cnc(N2CC3C(C2)C3NS(=O)(=O)c2ccc3ccccc3c2)nc1 (centres unmarked) [Example 1, N-Hydroxy 2-{6-[(2-naphthylsulfonyl)amino]-3-azabicyclo[3.1.0]hex-3-yl}pyrimidine-5-carboxamide trifluoroacetate]",< 330 nM,< 330 nM,< 100 nM,< 330 nM,,
"O=C(NO)c1cnc(NC2C3CN(S(=O)(=O)c4ccc5ccccc5c4)CC32)nc1 (centres unmarked) [Example 69, N-Hydroxy 2-{[3-(2-naphthylsulfonyl)-3-azabicyclo[3.1.0]hex-6-yl]amino}pyrimidine-5-carboxamide]",331 to 3300 nM,> 3300 nM,< 100 nM,> 3300 nM,,
"O=C(NO)c1cnc(N2CC3C(C2)C3NC(=O)C2CCCCC2)nc1 (centres unmarked) [Example 12, N-Hydroxy 2-{6-[(cyclohexylcarbonyl)amino]-3-azabicyclo[3.1.0]hex-3-yl}pyrimidine-5-carboxamide]",331 to 3300 nM,331 to 3300 nM,< 100 nM,331 to 3300 nM,,
"O=C(NO)c1cnc(N2CC3CN(Cc4cc(F)cc(F)c4)CC3C2)nc1 (centres unmarked) [Example 83, N-Hydroxy 2-[5-(3,5-difluorobenzyl)hexahydropyrrolo[3,4-c]pyrrol-2(1H)-yl]pyrimidine-5-carboxamide]",< 330 nM,331 to 3300 nM,< 100 nM,< 330 nM,,
"O=C(NO)c1cnc(N2CC3CN(Cc4ccc5ccccc5c4)CC3C2)nc1 (centres unmarked) [Example 79, N-Hydroxy 2-(5-naphthalen-2-ylmethylhexahydropyrrolo[3,4-c]pyrrol-2(1H)-yl)pyrimidine-5-carboxamide]",< 330 nM,< 330 nM,< 100 nM,< 330 nM,,
O=C(NO)c1cnc(N2CC3C(C2)C3N(CCN2CCOCC2)S(=O)(=O)c2ccc3ccccc3c2)nc1 (centres unmarked) [Example 51],< 330 nM,< 330 nM,< 100 nM,< 330 nM,,
"Cc1nccn1CCN(C1C2CN(c3ncc(C(=O)NO)cn3)CC21)S(=O)(=O)c1ccc2ccccc2c1 (centres unmarked) [Example 47, N-Hydroxy 2-{6-[[2-(2-methylimidazol-1-yl)ethyl](naphthalene-2-sulfonyl)amino]-3-azabicyclo[3.1.0]hex-3-yl}pyrimidine-5-carboxamide]",331 to 3300 nM,331 to 3300 nM,< 100 nM,331 to 3300 nM,,
"CC(CCNC1C2CN(c3ncc(C(=O)NO)cn3)CC21)c1ccccc1 (centres unmarked) [Example 29, N-Hydroxy 2-[6-(3-phenylbutylamino)-3-aza-bicyclo[3.1.0]hex-3-yl]pyrimidine-5-carboxamide]",< 330 nM,< 330 nM,< 100 nM,< 330 nM,,
"CC(=O)N(Cc1ccc2ccccc2c1)C1C2CN(c3ncc(C(=O)NO)cn3)CC21 (centres unmarked) [Example 60, N-Hydroxy 2-[6-(acetylnaphthalen-2-ylmethylamino)-3-azabicyclo[3.1.0]hex-3-yl]pyrimidine-5-carboxamide]",< 330 nM,< 330 nM,< 100 nM,< 330 nM,,
